From patent publication US9161930B2, “Pharmaceutical composition for diabetic nephropathy and its preparation and application” (Guangzhou Consun Medicine R & D Co., Ltd., priority 2009, dated 2015)

Experiments:
[1] = test system: Rat messangial cell line HBZY-1; experiment: Hydroxyproline content in supernatant of rat mesangial cells induced by AGEs; format: cell-based; details: AGEs 0.25 mg/ml, 48 h, supernatant of HBZY-1 cells
Experimental: Dissolved the 5% bovine serum albumin (BSA) without globulin and 0.5 mol/L D-amylaceum in 0.2 mol/L phosphate buffered solution (PBS, PH=7.2), filtrated with 0.24 μm micropore film and incubated under 37° C. for 60 days. After the incubation of the advanced glycation end products (AGEs) were finished, the umcombinated material was cleaned by extend dialyse method. Diluted to a necessary concentration and filtrated with 0.22 μm micropore film.
Prepare of unicell suspension with HBZY-1 cells in log phase growth and DMEM medium with 5% newborn calf serum, take 100 μl/well (cell quantities: 1×10^4/well) to the 96-well plate, incubated under 5% CO2 incubator at 37° C. for 24 hours, change with 100 μl the DMEM without serum and incubate another 24 hours to make the cells to anestrum (synchronization). Discard of the supernatant, add 90 μl DMEM medium with 5% newborn calf serum and 10 μl the different concentration of AGEs by gradient dilution with 6 repeat per group, incubate by gradient time, respectively, determinate the proliferation degree of rat mesangial cells by MTT.
(§1) Put the coverslips pre-treated by poly-L-lysine into 24-well cell culture plates, in order to make the HBZY-1 cells grow on until synchronization. Discard of the supernatant, add 800 μl DMEM medium, 100 μl AGEs (final concentration is 0.25 mg/ml) in each medicine group, then add 100 μl water extract of Cortex Mori (final concentration is 0.1 g/L) or DPMC (final concentration is 0.5, 5, 25 or 125 nM/L). The normal control group is added 1 ml DEME medium when the AGEs group is added 900 μl DMEM medium and 100 μl AGEs (final concentration was 0.25 mg/ml). Every group repeats for 6 times. Then, all the groups are incubated under 5% CO2 incubator at 37° C. for 48 h. Take suction of the cell supernatant for the content determination of hydroxyproline after the cells completely covered the coverslips and take out of the coverslips for immunocytochemistry staining.
Determinate the hydroxyproline content in cultured fluid of rat mesangial cells and express as x±s, analyze by t-test; observate the TGFβ-1 expression in immunohistochemistry photo of rat mesangial cells under microscope.

[2] = test system: TGFβ-1; experiment: TGFβ-1 expression of rat mesangial cells induced by AGEs (immunocytochemistry staining); format: cell-based; details: 48 h, FIG. 1
Experimental: as §1, with “staining. […]” for “staining.”

[3] = test system: STZ diabetic nephropathy model rat; experiment: 24 hour urine indicators in rat model of diabetic nephropathy induced by STZ; format: in vivo, Wistar rat; details: 14 weeks; for Total protein (mg) of urine / micro-albumen / urine creatinine: 24 hour urine
Experimental: (§2) Model by administrating of low dose STZ for several times and determinate as the model rat of diabetic nephropathy, divide into 6 groups with 10 mice/group: model group, positive drug control group (aminoguanidine, 100 mg/kg), water extract of Cortex Mori group, 3 different concentration doses of DPMC group (high dose group: 4 mg/kg; middle dose group: 2 mg/kg; low dose: 1 mg/kg), normal control group.
(§3) Each group is given the same volume corresponding drug in different concentration or physiological saline everyday by intragastric administration for 14 weeks.
(§4) Collect the 24 hour urine after administration is over, calculate the urine volume and determinate the content of total protein of urine, micro-albumen and urine creatinine; obtain blood by eye sockets and determinate the biochemical indicator with automatic biochemistry analyzer; take out of the double kidneys, fix with formalin and remain to histopathologic examination.
(§5) Statistical analysis of all determinations is calculated by interclass t-test and expressed as x±s.

[4] = test system: STZ diabetic nephropathy model rat; experiment: Serum biochemical indicators in rat of diabetic nephropathy (STZ); format: in vivo, Wistar rat; details: 14 weeks
Experimental: as §2, §3, §4, §5

[5] = test system: CTGF; experiment: CTGF expression of rat glomcrulus in model of diabetic nephropathy; format: in vivo, Wistar rat; details: 14 weeks, STZ rat
Experimental: as §2, §3, §4, §5

[6] = test system: STZ diabetic nephropathy model rat; experiment: Pathohistology (pathology score) of rat glomcrulus in model of diabetic nephropathy; format: in vivo, Wistar rat; details: 14 weeks
Experimental: as §2, §3, §4, §5

[7] = 100 mg/kg intragastric everyday

SMILES: COC(=O)Nc1ccc(Cc2ccc(NC(=O)OC)cc2)cc1 [DPMC, 4,4′-diphenylmethane-bis(methyl) carbamates]
- hydroxyproline ([1]; 0.5 nM/L): 7.68 ± 1.10 µg/mL
- hydroxyproline ([1]; 5 nM/L): 7.76 ± 1.21 µg/mL
- hydroxyproline ([1]; 25 nM/L): 5.71 ± 1.18 µg/mL
- hydroxyproline ([1]; 125 nM/L): 4.76 ± 0.58 µg/mL
- TGFβ-1 expression of rat mesangial cells induced by AGEs ([2]; different doses 0.5, 5, 25, 125 nM/L): restrain the TGFβ-1 expression increase
- TGFβ-1 expression of rat mesangial cells induced by AGEs ([2]; large dose 125 nM/L): performs best
- Urine V (24 hr, ml) ([3]; 1 mg/kg intragastric everyday): 59.9 ± 21.8 mL
- Total protein (mg) of urine ([3]; 1 mg/kg intragastric everyday): 69.1 ± 20.4 mg
- micro-albumen ([3]; 1 mg/kg intragastric everyday): 1.57 ± 0.56 mg
- urine creatinine ([3]; 1 mg/kg intragastric everyday): 1.4 ± 0.6 mmol/L
- Urine V (24 hr, ml) ([3]; 2 mg/kg intragastric everyday): 41.3 ± 16.4 mL
- Total protein (mg) of urine ([3]; 2 mg/kg intragastric everyday): 54.0 ± 17.4 mg
- micro-albumen ([3]; 2 mg/kg intragastric everyday): 0.93 ± 0.55 mg
- urine creatinine ([3]; 2 mg/kg intragastric everyday): 2.9 ± 1.2 mmol/L
- Urine V (24 hr, ml) ([3]; 4 mg/kg intragastric everyday): 33.9 ± 22.2 mL
- Total protein (mg) of urine ([3]; 4 mg/kg intragastric everyday): 46.2 ± 21.6 mg
- micro-albumen ([3]; 4 mg/kg intragastric everyday): 0.92 ± 0.42 mg
- urine creatinine ([3]; 4 mg/kg intragastric everyday): 4.3 ± 2.0 mmol/L
- AGEs ([4]; 1 mg/kg intragastric everyday): 290 ± 59
- BUN ([4]; 1 mg/kg intragastric everyday): 7.0 ± 1.0 mmol/L
- LDL ([4]; 1 mg/kg intragastric everyday): 1.91 ± 0.55 mmol/L
- MDA ([4]; 1 mg/kg intragastric everyday): 7.8 ± 2.3 nmol/L
- SC (umol/L), serum creatinine ([4]; 1 mg/kg intragastric everyday): 91.0 ± 31.1 µmol/L
- SOD (U/ml) ([4]; 1 mg/kg intragastric everyday): 498 ± 33 U/ml
- TG ([4]; 1 mg/kg intragastric everyday): 3.23 ± 0.76 mmol/L
- AGEs ([4]; 2 mg/kg intragastric everyday): 289 ± 56
- BUN ([4]; 2 mg/kg intragastric everyday): 6.6 ± 1.2 mmol/L
- LDL ([4]; 2 mg/kg intragastric everyday): 1.51 ± 0.53 mmol/L
- MDA ([4]; 2 mg/kg intragastric everyday): 6.8 ± 1.9 nmol/L
- SC (umol/L), serum creatinine ([4]; 2 mg/kg intragastric everyday): 76.6 ± 24.5 µmol/L
- SOD (U/ml) ([4]; 2 mg/kg intragastric everyday): 513 ± 41 U/ml
- TG ([4]; 2 mg/kg intragastric everyday): 2.76 ± 0.80 mmol/L
- AGEs ([4]; 4 mg/kg intragastric everyday): 281 ± 78
- BUN ([4]; 4 mg/kg intragastric everyday): 6.5 ± 1.5 mmol/L
- LDL ([4]; 4 mg/kg intragastric everyday): 1.43 ± 0.36 mmol/L
- MDA ([4]; 4 mg/kg intragastric everyday): 6.8 ± 1.3 nmol/L
- SC (umol/L), serum creatinine ([4]; 4 mg/kg intragastric everyday): 74.0 ± 17.1 µmol/L
- SOD (U/ml) ([4]; 4 mg/kg intragastric everyday): 520 ± 29 U/ml
- TG ([4]; 4 mg/kg intragastric everyday): 2.57 ± 0.80 mmol/L
- CTGF(%) ([5]; 1 mg/kg intragastric everyday): 7.1 ± 1.6 %
- CTGF(%) ([5]; 2 mg/kg intragastric everyday): 6.4 ± 2.7 %
- CTGF(%) ([5]; 4 mg/kg intragastric everyday): 6.0 ± 3.1 %
- Pathology score ([6]; 1 mg/kg intragastric everyday): 2.7 ± 1.0
- Pathology score ([6]; 2 mg/kg intragastric everyday): 1.8 ± 1.3
- Pathology score ([6]; 4 mg/kg intragastric everyday): 1.2 ± 1.1

SMILES: N=C(N)NN [aminoguanidine, reference compound]
- Urine V (24 hr, ml) [3, 7]: 36.2 ± 21.7 mL
- Total protein (mg) of urine [3, 7]: 43.2 ± 29.9 mg
- micro-albumen [3, 7]: 1.00 ± 0.27 mg
- urine creatinine [3, 7]: 4.0 ± 2.3 mmol/L
- AGEs [4, 7]: 283 ± 78
- BUN [4, 7]: 6.6 ± 0.8 mmol/L
- LDL [4, 7]: 2.01 ± 0.58 mmol/L
- MDA [4, 7]: 5.9 ± 1.7 nmol/L
- SC (umol/L), serum creatinine [4, 7]: 77.7 ± 20.3 µmol/L
- SOD (U/ml) [4, 7]: 516 ± 20 U/ml
- TG [4, 7]: 3.35 ± 0.87 mmol/L
- CTGF(%) [5, 7]: 5.9 ± 2.2 %
- Pathology score [6, 7]: 2.1 ± 1.0
